Source: patent US6818203B2, “Use of perfluoroalkyl-containing metal complexes as contrast media in MR-imaging for visualization of plaque, tumors and necroses” (Schering Aktiengesellschaft, priority 2000, dated 2004)
Values joined by “and” are separate entries in the source; they are usually repeats but may differ in a detail not shown here. Equal entries are not always repeated.

Tests used:
[1] = proton relaxivity in plasma (R^1), Minispec P 20; assay type: physicochemical; details: 40° C., 0.47 tesla, bovine plasma
Experimental: As a third criterion, the proton-relaxivity in plasma (R^1) at 40° C. and a field strength of 0.47 tesla is used. The relaxivity, which is indicated in [l/mmol·s], is the quantitative measurement for the shortening of relaxation time T^1 of the protons. For the purpose according to the invention, the relaxivity must be as high as possible and >10 l/mmol·s, preferably >13 l/mmol·s, especially preferably >15 l/mmol·s.
Relaxivity R^1 [l/mmol·s] of the MR-contrast media according to the invention was determined with the Minispec P 20 device of the Bruker Company. The measurements were taken at 40° C. and a field strength of 0.47 tesla. Eight measuring points were recorded by each T1-sequence: 180°-TI-90°, inversion recovery. As a medium, bovine plasma of the Kraeber Company was used. The contrast medium concentrations [mmol/l] in the batches were between 0.30 and 1.16.

[2] = test system: iliac lymph nodes; assay: lymph node visualization (MRT) after intravenous administration in VX2-tumor-bearing rabbits; assay type: in vivo; details: 100 μmol of Gd/kg i.v.; 60 minutes and 20 hours
Experimental: The pictures of FIG. 6 show MR images of an iliac lymph node and of a primary tumor (VX2-tumor implanted i.m.) precontrast, 60 minutes and 20 hours after intravenous administration of 100 μmol of Gd/kg of body weight of metal complex I in rabbits. […] The enhancement in the healthy lymph node tissue was 382% at the time of 15 minutes p.i. and 419% at the time of 60 minutes p.i. […] The ratio of signal intensities of healthy lymph node tissue to metastasis was 3.0 at the time of 15 minutes p.i. and 3.4 at the time of 60 minutes p.i. […] The enhancement in the healthy lymph node tissue was 246% at the time of 15 minutes p.i. and 282% at the time of 60 minutes p.i. […] The ratio of signal intensities of healthy lymph node tissue to metastasis was 2.5 at the time of 15 minutes p.i. and 1.7 at the time of 60 minutes p.i. […] The enhancement in the healthy lymph node tissue was 297% at the time of 10 minutes p.i. and 269% at the time of 60 minutes p.i. […] The ratio of signal intensities of healthy lymph node tissue to metastasis was 5.1 at the time of 10 minutes p.i. and 1.9 at the time of 60 minutes p.i. […] The enhancement in the healthy lymph node tissue was 195% at the time of 15 minutes p.i. and 233% at the time of 60 minutes p.i. […] The ratio of signal intensities of healthy lymph node tissue to metastasis was 1.9 at the time of 15 minutes p.i. and 1.8 at the time of 60 minutes p.i.

[3] = test system: primary tumor (VX2-tumor implanted i.m.); assay: tumor visualization (MRT) after intravenous administration in VX2-tumor-bearing rabbits; assay type: in vivo; details: 100 μmol of Gd/kg i.v.
Experimental: The pictures of FIG. 6 show MR images of an iliac lymph node and of a primary tumor (VX2-tumor implanted i.m.) precontrast, 60 minutes and 20 hours after intravenous administration of 100 μmol of Gd/kg of body weight of metal complex I in rabbits. […]

[4] = test system: myocardial infarction; assay: infarction visualization (MRT) after intravenous administration in rats with acutely induced myocardial infarction; assay type: in vivo; details: 24 hours after i.v. 100 μmol of Gd/kg
Description: The successful induction of an acute myocardial infarction was confirmed by means of NBT-staining.

[5] = critical micelle formation concentration (CMC) by tensiometry; assay type: physicochemical
Experimental: In aqueous systems, these amphiphilic molecules show the properties that are characteristic of standard surfactants (such as, e.g., sodium dodecylsulfate, SDS). They thus reduce the surface tension of water. By tensiometry, the so-called CMC (critical micelle formation concentration in mol/l) can be determined. In this respect, the surface tension is determined based on the concentration of the substance to be measured. The CMC can be calculated from the plot of the surface tension function (c) that is obtained. The critical micelle formation concentration of the compounds according to the invention must be <10^−3 mol/l, preferably <10^−4 mol/l.
(§1) Both the determination of the CMC and the photon correlation spectroscopy are described in H.-D. Dörfler, “Grenzflächen- und Kolloidchemie [Interface and Colloid Chemistry],” Weinheim, New York, Basel, Cambridge, Tokyo, VSH 1994.

[6] = hydrodynamic micelle diameter (2 Rh) by photon correlation spectroscopy (PCS); assay type: physicochemical
Description: The amphiphilic compounds according to the invention are combined in solution and are present as aggregates. The size (2 Rh) of such aggregates (e.g., micelles, rods, wafers, etc.) can be determined with the aid of […] (PCS).
As a second criterion, the hydrodynamic micelle diameter 2 Rh, which must be >1 nm, is therefore used. Those perfluoroalkyl-containing metal complexes according to the invention whose 2 RH is ≧3, quite especially preferably >4 nm, are especially suitable.
as §1

[7] = test system: infarcted tissue; details: cited from earlier work

CC(C(=O)NCC(=O)N1CCN(S(=O)(=O)C(F)(F)C(F)(F)C(F)(F)C(F)(F)C(F)(F)C(F)(F)C(F)(F)C(F)(F)F)CC1)N1CCN(CC(=O)[O-])CCN(CC(=O)[O-])CCN(CC(=O)[O-])CC1.[Gd+3] (centres unmarked) [metal complex I, Gadolinium complex of 10-[1-methyl-2-oxo-3-aza-5-oxo-{4-perfluorooctyl-sulfonyl-piperazin-1-yl}-pentyl]-1,4,7-tris(carboxymethyl)-1,4,7,10-tetraazacyclododecane]
R^1 Plasma (relaxivity) [1]: 35.7 mmol⁻¹ s⁻¹
signal in healthy lymph node tissue (T1-weighted gradient-echo images) [2]: strong signal rise
enhancement of the primary tumor (especially the periphery) ([3]; 60 minutes p.i.): considerable enhancement
course of the signal rise of the primary tumor ([3]; 20 hours p.i.): propagated in the more central region of the tumor
enhancement of a pathological structure (optionally secondary tumor or necrosis) on the contralateral side ([3]; late images): late enhancement
signal in the infarction area (T1-weighted spin-echo images) [4]: strong signal rise
CMC (critical micelle formation concentration) [5]: 1.86e-06 mol/L
2 Rh (hydrodynamic micelle diameter) [6]: 4.6 nm

O=C([O-])CN1CCN(CC(=O)[O-])CCN(CC(O)CNC(=O)COCCC(F)(F)C(F)(F)C(F)(F)C(F)(F)C(F)(F)C(F)(F)C(F)(F)C(F)(F)F)CCN(CC(=O)[O-])CC1.[Gd+3] (centres unmarked) [metal complex II, Gadolinium complex of 10-[2-hydroxy-4-aza-5-oxo-7-oxa-10,10,11,11,12,12,13,13,14,14,15,15,16,16,17,17-heptadecafluoroheptadecyl]-1,4,7-tris (carboxymethyl)-1,4,7,10-tetraazacyclododecane]
R^1 Plasma (relaxivity) [1]: 33 mmol⁻¹ s⁻¹
CMC (critical micelle formation concentration) [5]: 2.3e-05 mol/L
2 Rh (hydrodynamic micelle diameter) [6]: 14 nm

CCN(CC(=O)NCC(O)CN1CCN(CC(=O)[O-])CCN(CC(=O)[O-])CCN(CC(=O)[O-])CC1)S(=O)(=O)C(F)(F)C(F)(F)C(F)(F)C(F)(F)C(F)(F)C(F)(F)C(F)(F)C(F)(F)F.[Gd+3] (centres unmarked) [metal complex IV, Gadolinium complex of 10-[2-hydroxy-4-aza-5-oxo-7-aza-7-(perfluorooctyl-sulfonyl)-nonyl]-1,4,7-tris (carboxymethyl)-1,4,7,10-tetraazacyclododecane]
R^1 Plasma (relaxivity) [1]: 29.7 mmol⁻¹ s⁻¹
CMC (critical micelle formation concentration) [5]: 1e-06 mol/L
2 Rh (hydrodynamic micelle diameter) [6]: 31.5 nm

CC(C(=O)NCC(=O)NCCOCCOCCOCCCNC(=O)COCCC(F)(F)C(F)(F)C(F)(F)C(F)(F)C(F)(F)C(F)(F)C(F)(F)C(F)(F)F)N1CCN(CC(=O)[O-])CCN(CC(=O)[O-])CCN(CC(=O)[O-])CC1.[Gd+3] (centres unmarked) [metal complex IX]
R^1 Plasma (relaxivity) [1]: 13.3 mmol⁻¹ s⁻¹
CMC (critical micelle formation concentration) [5]: 2.65e-06 mol/L
2 Rh (hydrodynamic micelle diameter) [6]: 6.0 nm

O=C([O-])CN1CCN(CC(=O)[O-])CCN(CC(O)COCCC(F)(F)C(F)(F)C(F)(F)C(F)(F)C(F)(F)C(F)(F)C(F)(F)C(F)(F)F)CCN(CC(=O)[O-])CC1.[Gd+3] (centres unmarked) [metal complex VI, Gadolinium complex of 10-[2-hydroxy-4-oxa-1H,1H,2H,2H,3H,3H,5H,5H,6H,6H-perfluorotetradecyl]-1,4,7-tris(carboxymethyl)-1,4,7,10-tetraazacyclododecane]
R^1 Plasma (relaxivity) [1]: 27.5 mmol⁻¹ s⁻¹
CMC (critical micelle formation concentration) [5]: 1.44e-05 mol/L
2 Rh (hydrodynamic micelle diameter) [6]: 3.2 nm

CC(C(=O)NCC(=O)N(CCOCCO)CCOCCC(F)(F)C(F)(F)C(F)(F)C(F)(F)C(F)(F)C(F)(F)C(F)(F)C(F)(F)F)N1CCN(CC(=O)[O-])CCN(CC(=O)[O-])CCN(CC(=O)[O-])CC1.[Gd+3] (centres unmarked) [metal complex VIII]
R^1 Plasma (relaxivity) [1]: 21.2 mmol⁻¹ s⁻¹
CMC (critical micelle formation concentration) [5]: 2.92e-05 mol/L
2 Rh (hydrodynamic micelle diameter) [6]: 25 nm

COCCOCCOCCOCCOCCN(CCOCCC(F)(F)C(F)(F)C(F)(F)C(F)(F)C(F)(F)C(F)(F)C(F)(F)C(F)(F)F)C(=O)CNC(=O)C(C)N1CCN(CC(=O)[O-])CCN(CC(=O)[O-])CCN(CC(=O)[O-])CC1.[Gd+3] (centres unmarked) [metal complex VII]
R^1 Plasma (relaxivity) [1]: 30.3 mmol⁻¹ s⁻¹
CMC (critical micelle formation concentration) [5]: 5.2e-05 mol/L
2 Rh (hydrodynamic micelle diameter) [6]: 3.0 nm

O=C([O-])CN1CCN(CC(=O)[O-])CCN(CC(O)CNC(=O)COCCC(F)(F)C(F)(F)C(F)(F)C(F)(F)C(F)(F)C(F)(F)C(F)(F)C(F)(F)C(F)(F)C(F)(F)F)CCN(CC(=O)[O-])CC1.[Gd+3] (centres unmarked) [metal complex XI, Gadolinium complex of 10-[2-hydroxy-4-aza-5-oxo-7-oxa-10,10,11,11,12,12,13,13,14,14,15,15,16,16,17,17,18,18,19,19-henicosafluoro-nonadecyl]-1,4,7-tris(carboxymethyl)-1,4,7,10-tetraazacyclododecane]
R^1 Plasma (relaxivity) [1]: 24.8 mmol⁻¹ s⁻¹
CMC (critical micelle formation concentration) [5]: 2.88e-06 mol/L
2 Rh (hydrodynamic micelle diameter) [6]: 35.5 nm

CCN(CCCCCC(=O)NCC(O)CN1CCN(CC(=O)[O-])CCN(CC(=O)[O-])CCN(CC(=O)[O-])CC1)S(=O)(=O)C(F)(F)C(F)(F)C(F)(F)C(F)(F)C(F)(F)C(F)(F)C(F)(F)C(F)(F)F.[Gd+3] (centres unmarked) [metal complex XII, Gadolinium complex of 10-[2-hydroxy-4-aza-5-oxo-11-aza-11-(perfluorooctyl-sulfonyl)-tridecyl]-1,4,7-tris(carboxymethyl) 1,4,7,10-tetraazacyclododecane]
R^1 Plasma (relaxivity) [1]: 30.5 mmol⁻¹ s⁻¹
CMC (critical micelle formation concentration) [5]: 1.07e-05 mol/L
2 Rh (hydrodynamic micelle diameter) [6]: 7.4 nm

O=C([O-])CN1CCN(CC(=O)[O-])CCN(CC(O)CNC(=O)CN(Cc2ccccc2)S(=O)(=O)C(F)(F)C(F)(F)C(F)(F)C(F)(F)C(F)(F)C(F)(F)C(F)(F)C(F)(F)F)CCN(CC(=O)[O-])CC1.[Gd+3] (centres unmarked) [metal complex XIII, Gadolinium complex of 10-[2-hydroxy-4-aza-5-oxo-7-aza-7-(perfluorooctyl-sulfonyl)-8-phenyl-octyl]-1-4-7-tris(carboxymethyl)-1,4,7,10-tetraazacyclododecane]
R^1 Plasma (relaxivity) [1]: 34.0 mmol⁻¹ s⁻¹
CMC (critical micelle formation concentration) [5]: 3.25e-06 mol/L
2 Rh (hydrodynamic micelle diameter) [6]: 4.3 nm

CC(C(=O)NCC(=O)NCCCC[C@H](NC(=O)CNC(=O)C(C)N1CCN(CC(=O)[O-])CCN(CC(=O)[O-])CCN(CC(=O)[O-])CC1)C(=O)N1CCN(S(=O)(=O)C(F)(F)C(F)(F)C(F)(F)C(F)(F)C(F)(F)C(F)(F)C(F)(F)C(F)(F)F)CC1)N1CCN(CC(=O)[O-])CCN(CC(=O)[O-])CCN(CC(=O)[O-])CC1.[Gd+3].[Gd+3] (some centres unmarked) [metal complex XVI]
R^1 Plasma (relaxivity) [1]: 21.3 mmol⁻¹ s⁻¹
CMC (critical micelle formation concentration) [5]: 3.9e-05 mol/L
2 Rh (hydrodynamic micelle diameter) [6]: 4.9 nm

gadolinium-mesoporphyrin [Gd-MP]
ratio of the signal intensities during MRI for infarcted tissue in comparison to healthy tissue ([7]; infarcted kidney and myocardium (both cases)): 2.10 and 2.19
metal content of the infarcted organ compared with non-infarcted ([7]; kidney (Example 3 of WO 95/31219)): as high as that of the non-infarcted organ
metal content in the infarcted tissue compared with non-infarcted ([7]; myocardium (Example 1 of WO 95/31219)): nine times as high
